Broadly, the inhibition in vivo is the drop in the measured response relative to a control, in per cent. What is called IC50 is the concentration at which inhibition is half-maximal. A higher IC50 goes with weaker potency. As usually defined, the Inhibition is how much of the control response was suppressed. Higher therefore signals strong suppression. A word on the Cmax: it is the maximum level reached in the sampled fluid or tissue. For orientation: Tmax means the time from dosing to the highest level. Usually clearance stands for the volume of plasma or blood freed of the substance per unit of time. A higher clearance goes with efficient removal. As usually defined, the bioavailability is the share of a dose that reaches the circulation, judged against a reference dose that is usually intravenous.

18 molecules from ChEMBL document CHEMBL1133856, “2-Aryl indole NK(1) antagonists: optimisation of the amide substituent” (Bioorg Med Chem Lett, 2001) can be followed below.

Molecules are shown by their SMILES. “And” between values parts separate entries of the source, which are not always exact repeats. Equal values may be shown once.

Data set [1] concerns Gerbillinae. Briefly: In vivo percent inhibition of gerbil foot tapping 2 hours after iv administration of 3 mg/kg. It is filed as functional.
Data set [2] concerns the target Substance-P receptor (Homo sapiens, UniProt P25103). Briefly: Ability to displace [125I]-labeled substance P from human cloned Tachykinin receptor 1 in CHO cells. It is filed as cell-based.
For data set [3], the system named is Gerbillinae. Briefly: In vivo percent inhibition of gerbil foot tapping 0 hours after iv administration of 3 mg/kg. It is filed as functional.
For data set [4], the system named is Gerbillinae. Briefly: In vivo percent inhibition of gerbil foot tapping 0 hours after iv administration of 1 mg/kg. It is filed as functional.
Data set [5] concerns Gerbillinae. Briefly: In vivo percent inhibition of gerbil foot tapping 2 hours after iv administration of 1 mg/kg. Type of data set: functional.
The nature of data set [6]: Maximum plasma concentration determined in rat. Type of data set: ADME, organism-based.
The nature of data set [7]: Time for maximum plasma concentration determined in rat. It is filed as ADME, organism-based.
A short description of data set [8]: Plasma half life determined in rat. Type of data set: ADME, organism-based. The following applies: read-out: Time (converted).
Data set [9] in a line: Plasma clearance rate determined in rat. Type of data set: ADME, organism-based.
Data set [10] in a line: Steady state volume of distribution determined in rat. It is filed as ADME, organism-based. The settings on record: in vivo, read-out: Vss.
The nature of data set [11]: Oral bioavailability in rat. Type of data set: ADME, organism-based. The settings on record: in vivo.
Data set [12] in a line: Mean residence time determined in rat. Type of data set: ADME, organism-based. The following applies: in vivo, read-out: Time.
The test system of data set [13] is Gerbillinae. Briefly: In vivo percent inhibition of gerbil foot tapping 0 hours after iv administration at 3 mg/kg. Type of data set: functional.
Data set [14] can be described thus: Half life of compound determined in rat. It is filed as ADME, organism-based. The settings on record: in vivo, read-out: Time (converted).
Data set [15] deals with Gerbillinae. Briefly: Inhibitory dose against gerbil foot tapping 2 hours after iv administration. Type of data set: functional.

Substance-P receptor, sequence (P25103 whole entry): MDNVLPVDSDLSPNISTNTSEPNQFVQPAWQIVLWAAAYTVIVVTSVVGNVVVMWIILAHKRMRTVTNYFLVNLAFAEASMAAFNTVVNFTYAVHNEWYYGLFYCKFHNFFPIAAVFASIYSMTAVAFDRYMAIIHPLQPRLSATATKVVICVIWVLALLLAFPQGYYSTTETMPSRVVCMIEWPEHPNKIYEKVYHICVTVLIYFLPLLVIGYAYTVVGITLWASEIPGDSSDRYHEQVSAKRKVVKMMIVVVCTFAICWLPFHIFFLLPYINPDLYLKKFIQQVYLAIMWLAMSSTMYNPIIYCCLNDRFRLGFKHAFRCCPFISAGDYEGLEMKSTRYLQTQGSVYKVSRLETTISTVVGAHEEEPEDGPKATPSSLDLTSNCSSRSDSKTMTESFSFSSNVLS

On to `Cn1c(-c2ccc(Cl)cc2)c(CCC(=O)N2CCN(C3CCCCC3)CC2)c2cc(Cl)ccc21`, for which the results for the inhibition in vivo at 3 mg/kg in data set [1] and in data set [3] were 7% and 100%, respectively. The IC50 in data set [2] was found to be 0.35 nM.

As to `Cn1c(-c2ccc(Cl)cc2)c(CCC(=O)N2CCN(CC3CC3)CC2)c2cc(Cl)ccc21`, in data set [2], the IC50 turned out to be 0.78 nM. This lies in the sub-nanomolar range.

In data set [2], `Cn1c(-c2ccc(Cl)cc2)c(CCC(=O)N2CCC(Cc3ccccc3)CC2)c2cc(Cl)ccc21` showed a half-inhibitory concentration (IC50) of 2.2 nM. This IC50 is about 2.8-fold higher than that of the molecule before.

Regarding `CN(C(=O)CN1CCN(C(=O)CCc2c(-c3ccc(Cl)cc3)n(C)c3ccc(Cl)cc23)CC1)c1ccccc1`, the inhibition in vivo at 1 mg/kg came out at 87% in [4] and 6% in [5]. Moreover, the half-inhibitory concentration (IC50) in data set [2] worked out at 0.13 nM.

Take `Cn1c(-c2ccc(Cl)cc2)c(CCC(=O)N2CCN(Cc3ccccc3)CC2)c2cc(Cl)ccc21`: the inhibition in vivo at 3 mg/kg is 17% in data set [1] and 100% in data set [3]. The concentration for half-maximal inhibition (IC50) in data set [2] turned out to be 0.3 nM.

For the molecule `CC(=O)C1(c2ccccc2)CCN(C(=O)CCc2c(-c3ccc(Cl)cc3)n(C)c3ccc(Cl)cc23)CC1`, the IC50 in data set [2] was 0.53 nM.

In data set [2], `CC(C)CCN1CCN(C(=O)CCc2c(-c3ccc(Cl)cc3)n(C)c3ccc(Cl)cc23)CC1` displayed an IC50 of 0.34 nM. Against the preceding molecule, the IC50 is about 1.6-fold lower.

Molecule `Cn1c(-c2ccc(Cl)cc2)c(CCC(=O)N2CCC(F)(Cc3ccccc3)CC2)c2cc(Cl)ccc21` displayed a half-inhibitory concentration (IC50) in [2] of 0.55 nM. This IC50 lies about 1.6-fold higher than the previous one.

In the case of `Cn1c(-c2ccc(Cl)cc2)c(CCC(=O)N2CCC(Nc3ccccc3)CC2)c2cc(Cl)ccc21`, the IC50 in data set [2] is 1.3 nM.

In turn, `Cn1c(-c2ccc(Cl)cc2)c(CCC(=O)N2CCN(Cc3ccccc3)C(=O)C2)c2cc(Cl)ccc21` came in with a half-inhibitory concentration (IC50) in data set [2] of 0.39 nM.

For the molecule `CCC(=O)N(c1ccccc1)C1CCN(C(=O)CCc2c(-c3ccc(Cl)cc3)n(C)c3ccc(Cl)cc23)CC1`, the Inhibition is on record as 50% in data set [1] and 100% in data set [3]. Further, in [2], the 50% inhibitory concentration (IC50) was determined as 0.16 nM.

In data set [6], `COc1ccccc1N1CCN(C(=O)CCc2c(-c3ccc(Br)cc3)[nH]c3ccc(C)cc23)CC1` returned a Cmax of 2 ng/mL. For the same molecule, the Tmax in [7] was found to be 1.1 h. Further, the half-life in [8] is 1.4 h. This molecule registered a clearance in [9] of 179 mL/min/kg. For the same molecule, the Vd in [10] was determined as 9.5 L/kg. This molecule also yielded a bioavailability in [11] of 3%. Besides, the MRT in [12] was 0.9 h. Further, testing at 3 mg/kg in data set [13] gave an inhibition in vivo of 46%.

Regarding `Cn1c(-c2ccc(Cl)cc2)c(CCC(=O)N2CCN(CC(C)(C)C)CC2)c2cc(Cl)ccc21`, the half-maximal inhibitory concentration (IC50) in data set [2] turned out to be 2 nM.

As for `Cn1c(-c2ccc(Cl)cc2)c(CCC(=O)N2CCC(O)(Cc3ccccc3)CC2)c2cc(Cl)ccc21`, the concentration in data set [6] peaked (Cmax) at 4 ng/mL. Also, in data set [14], the half-life is 3.1 h. Moreover, the time to peak (Tmax) in [7] was found to be 1.2 h. The Vd in [10] came out at 3.5 L/kg. In data set [11], this molecule gave a bioavailability of 3%. In addition, the ID50 in data set [15] was 0.3 mg/kg and 0.9 mg/kg. Moreover, in data set [12], the MRT stood at 1.8 h. The IC50 in data set [2] was 0.21 nM.

`Cn1c(-c2ccc(Cl)cc2)c(CCC(=O)N2CCN(CC(=O)Nc3ccccc3)CC2)c2cc(Cl)ccc21` returned a half-inhibitory concentration (IC50) in data set [2] of 30 nM. That is a double-digit nanomolar value.

Turning to `CC(C)N1CCN(C(=O)CCc2c(-c3ccc(Cl)cc3)n(C)c3ccc(Cl)cc23)CC1`, the IC50 in [2] was 13 nM.

With `Cn1c(-c2ccc(Cl)cc2)c(CCC(=O)N2CCC(CO)(c3ccccc3)CC2)c2cc(Cl)ccc21`, the IC50 in [2] was determined as 55 nM.

Molecule `Cn1c(-c2ccc(Cl)cc2)c(CCC(=O)N2CCN(CC3CCCCC3)CC2)c2cc(Cl)ccc21` yielded an IC50 in [2] of 2.9 nM.
